Reference: patent US6555566B2, “Methods and materials for treating and preventing inflammation of mucosal tissue” (Mayo Foundation for Medical Education and Research, priority 1997, dated 2003)
Several values for one entry are separate records, joined by “and”; a condition that tells them apart may be missing. Equal entries are not always repeated.

Columns and labels:
[1] = test system: non-invasive fungus-induced rhinosinusitis patients; assay: Patient data collected during a one week period (amphotericin B nasal irrigations); format: in vivo, human; parameters: Endoscopy Score B / Endoscopy Score A / Symptom Score B: scale not given here
Text: Only previously seen patients that were instructed to use the antifungal amphotericin B nasal irrigations were entered into this study.
During a one week period, twenty patients returned to the physician's office (Table II). The average age of the returning patients was 47 years (range 16-74 years). The patients were using the amphotericin B irrigations for an average duration of about six months (range 1-16 months). […] In addition, some patients were using topical and systemic steroid therapy. Further, some patients were using an antibiotic nasal irrigation in addition to the antifungal irrigations. The antibacterial solution contained 80 mg gentamicin per L saline (Wilson's solution). Some patients mixed the antibacterial solution with the antifungal solution and then performed the nasal irrigations while others used each solution separately in a sequential manner. Some patients also had other diseases including asthma (15 of the 20 patients) and colitis (2 of the 20 patients).

rhinosinusitis patient = assay: Single patient, one-sided then two-sided amphotericin B irrigation with surgery, RAST to Alternaria
Protocol: Only the left nasal-paranasal side, however, received surgery as well as intra-operative and post-operative treatment with about 20 mL of an amphotericin B solution (100 mg/L) two to four times daily.

[2] = test system: non-invasive fungus-induced rhinosinusitis patient; assay: Eosinophil count in mucosal biopsies after antifungal treatment; format: in vivo, human; conditions: after nine months of irrigations twice a day
Text: A person was diagnosed with non-invasive fungus-induced rhinosinusitis and instructed to perform amphotericin B irrigations twice a day. After nine months of amphotericin B irrigations, the patient underwent sinus surgery for further improvement. During the surgery mucosal biopsies were collected and the eosinophil count compared to the those obtained from biopsies collected from the patient during a surgery prior to the antifungal treatment.

[3] = test system: non-invasive fungus-induced rhinosinusitis patients; assay: Amphotericin B irrigations in patients without previous nasal surgery; format: in vivo, human
Text: A person was diagnosed with non-invasive fungus-induced rhinosinusitis and instructed to perform amphotericin B irrigations twice a day.
A person was diagnosed with non-invasive fungus-induced rhinosinusitis and instructed to perform amphotericin B irrigations twice a day, which was later increased to four times a day.
A person was diagnosed with non-invasive fungus-induced rhinosinusitis and instructed to perform amphotericin B irrigations twice a day. This patient had been given intramuscular steroid shots every 3 to 8 months with the last shot being administered about seven months prior to starting the amphotericin B irrigations.

chronic asthma patients = assay: Chronic asthma symptoms in patients of the amphotericin B irrigation study
Protocol: One hundred and thirty-two consecutive rhinosinusitis patients were entered into a study to evaluate the use of an antifungal agent to treat non-invasive fungus-induced rhinosinusitis. […] The 125 non-invasive fungus-induced rhinosinusitis patients were started on an antifungal treatment of about 20 mL of an amphotericin B solution per nostril, two to four times daily for at least three months. The concentration of the amphotericin B solution was about 100 mg per liter of saline or water. A 20 mL bulb was used by the patient to mucoadminister the amphotericin B solution into the patient's nasal-paranasal anatomy. Data were compiled for 53 of the patients who had returned for their three month follow-up analysis.

[4] = test system: non-invasive fungus-induced rhinosinusitis patients; assay: Amphotericin B nasal irrigation study, three month follow-up of 53 patients; format: in vivo, human
Text: In addition to patient interviewing, CT scan analysis, visual examination, and fungal culture analysis, two types of evaluations were used to score the success of the treatment: an endoscopic evaluation and a patient symptom evaluation.

[5] = test system: non-invasive fungus-induced rhinosinusitis patients; assay: Itraconazole nasal irrigations in rhinosinusitis patients; format: in vivo, human; parameters: symptom score before itraconazole irrigations / symptom score after itraconazole irrigations / endoscopic score, right side, before / endoscopic score, right side, after / endoscopic score, left side, before / endoscopic score, left side, after: scale not given here
Protocol: Three non-invasive fungus-induced rhinosinusitis patients (person, person, and person) were instructed to perform nasal irrigation with an itraconazole solution. The itraconazole solution contained about 100 mg of itraconazole per L of solution (10% PEG-400 in sterile water) and was prepared as described herein. […] Each patient reported marked improvement in symptoms within two weeks of starting the itraconazole irrigations (symptom scores: −1 to +2 and −1 to +1).
After treatment with itraconazole, that patient reported symptom improvement (symptom score: from −1 to 0).

[6] = after antifungal treatment, nasal irrigations 1-16 months, 1-2x day, one line per patient, r26 and r28 switched to itraconazole for the last month, r13 stopped 8 months earlier
[7] = before antifungal treatment (baseline), one line per patient
[8] = after treatment, three month follow-up
[9] = sixteen days after starting itraconazole irrigations, one patient

## C[C@@H]1[C@H](O)[C@@H](C)/C=C/C=C/C=C/C=C/C=C/C=C/C=C/[C@H](O[C@@H]2O[C@H](C)[C@@H](O)[C@H](N)[C@@H]2O)C[C@@H]2O[C@](O)(C[C@@H](O)C[C@@H](O)[C@H](O)CC[C@@H](O)C[C@@H](O)CC(=O)O[C@H]1C)C[C@H](O)[C@H]2C(=O)O [amphotericin B]
[1]; [6]
  Endoscopy Score A: 0 (10×) and 3 (5×) and 1 (2×)
  Symptom Score A: +1 (6×) and +2 (6×) and 0 (6×) and −2 and 1
[1]; [7]
  Endoscopy Score B: 1 (3×) and 2 (5×) and 3 (10×) and 0
  Symptom Score B: −1 (14×) and −2 (6×)
[1]; nasal irrigations, average about six months
  endoscopic evaluation, overall outcome of the twenty patients: most patients had an observable improvement
Rhinosinusitis patient; after surgery on the right side and irrigation of both sides for about seven weeks
  RAST reading to Alternaria: 4.47 KU/L
Rhinosinusitis patient; at every post-operative visit, surgery plus irrigation of the left side
  state of the treated left paranasal sinuses: clear of disease
Rhinosinusitis patient; before treatment (baseline)
  RAST reading to Alternaria: 6.23 KU/L
Rhinosinusitis patient; only left side operated and irrigated (about 20 mL, 100 mg/L, two to four times daily), eight to ten weeks after symptoms disappeared on the left
  RAST reading to Alternaria: 7.16 KU/L
Rhinosinusitis patient; six months after the last surgery, both sides irrigated
  patient state by CT scan: symptom-free and disease-free
Rhinosinusitis patient; six months post-operation, only left side treated, rhinosinusitis diagnosed on the right
  RAST reading to Alternaria: 10.0 KU/L
[2]
  eosinophil count in mucosal biopsies, all sinuses except the frontal: < 5%
[2]; frontal sinus obstructed, presumably not reached
  eosinophil count in the frontal sinus biopsy: 10%
[3]; baseline, no previous nasal surgery, one line per patient
  symptom score before treatment: −1
[3]; irrigations twice a day (b227 later four times a day) for fourteen, sixteen, four months
  endoscopic score after treatment: 0
Chronic asthma patients; after starting treatment
  patients no longer exhibiting asthma symptoms who stopped taking their asthma medication: 26 of the 28
Chronic asthma patients; after three months of nasal irrigation treatment of Example 2
  asthmatic patients declaring improvement or complete elimination of asthma symptoms: 28 of the 37
Chronic asthma patients; four of the 28 improved patients tested
  patients with improved pulmonary function test after versus before treatment: all four
Chronic asthma patients; of twenty-three patients on systemic steroids for asthma before
  patients taking steroids after starting treatment: none
[4]; after three months, about 20 mL of 100 mg/L solution per nostril, two to four times daily
  patients going from endoscopic evaluation stage 2 or 3 to stage 0: 33 of the 53
[4]; [8]
  patients giving themselves symptom stage 0 (baseline/no change): six of the 53
  patients giving themselves symptom stage 1 (good/improved): three of the 53
  patients giving themselves symptom stage 2 (very good/free of symptoms): 44 of the 53
[4]; endoscopic evaluation after three months
  patients that did not respond to the treatment (of 53): nine
[4]; five of the nine non-responders had mucus samples available
  non-responding patients whose mucus fungal organisms were resistant to the agent: all five
[4]; one patient with bilateral rhinosinusitis, no recent surgery, no steroids, 20 mL of 100 mg/L per nostril two times daily, four months
  CT scan finding after treatment: complete disappearance of opacity and symptoms characteristic of rhinosinusitis
[4]; several patients, fungal organism culturing
  number of different fungal species in mucus after versus before treatment: remarkably reduced
[5]; one patient (third patient)
  local reaction to nasal irrigations: burning sensation

## CCC(C)n1ncn(-c2ccc(N3CCN(c4ccc(OCC5COC(Cn6cncn6)(c6ccc(Cl)cc6Cl)O5)cc4)CC3)cc2)c1=O (centres unmarked) [itraconazole]
[5]; about 100 mg per L (10% PEG-400 in sterile water), within two weeks, patients not responding to amphotericin B, one line per patient
  symptom score after itraconazole irrigations: +2 and +1 and 0
[5]; baseline, one line per patient
  symptom score before itraconazole irrigations: −1
[5]; baseline, one patient
  endoscopic score, left side, before: 1
  endoscopic score, right side, before: 1
[5]; human, in vivo
  local reaction to nasal irrigations: did not have any adverse local reaction
[5]; [9]
  endoscopic score, left side, after: 1
  endoscopic score, right side, after: 0
